In ChEMBL document CHEMBL1143451, “The neuroprotective action of JNK3 inhibitors based on the 6,7-dihydro-5H-pyrrolo[1,2-a]imidazole scaffold” (Bioorg Med Chem Lett, 2005):

How the values were obtained:
[1] = molecular target: T1, Mitogen-activated protein kinase 14 (Homo sapiens, UniProt Q16539); test: Inhibitory activity against p38 at a concentration of 1.0 uM
[2] = molecular target: T2, Mitogen-activated protein kinase 10 (Homo sapiens, UniProt P53779); test: Inhibitory activity against c-Jun N-terminal kinase 3 at a concentration of 1.0 uM
T2 sequence (P53779 whole entry): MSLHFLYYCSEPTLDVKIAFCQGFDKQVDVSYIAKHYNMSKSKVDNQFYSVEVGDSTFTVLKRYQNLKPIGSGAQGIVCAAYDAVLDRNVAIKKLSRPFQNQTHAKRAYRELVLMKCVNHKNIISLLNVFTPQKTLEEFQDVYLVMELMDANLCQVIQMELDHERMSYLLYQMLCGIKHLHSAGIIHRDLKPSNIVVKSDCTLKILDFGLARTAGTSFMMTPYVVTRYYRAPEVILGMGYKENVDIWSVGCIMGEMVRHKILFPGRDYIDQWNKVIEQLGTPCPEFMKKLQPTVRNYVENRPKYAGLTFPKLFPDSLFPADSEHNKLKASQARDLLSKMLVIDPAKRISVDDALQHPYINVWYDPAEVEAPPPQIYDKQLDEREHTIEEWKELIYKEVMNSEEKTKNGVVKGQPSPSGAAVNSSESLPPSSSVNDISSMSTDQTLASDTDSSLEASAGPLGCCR

[3] = molecular target: T2, Mitogen-activated protein kinase 10; test: Inhibitory concentration against c-Jun N-terminal kinase 3 at a concentration of 1.0 uM
[4] = molecular target: T1, Mitogen-activated protein kinase 14; test: Inhibitory concentration against p38 at a concentration of 1.0 uM

T1 sequence (Q16539 whole entry): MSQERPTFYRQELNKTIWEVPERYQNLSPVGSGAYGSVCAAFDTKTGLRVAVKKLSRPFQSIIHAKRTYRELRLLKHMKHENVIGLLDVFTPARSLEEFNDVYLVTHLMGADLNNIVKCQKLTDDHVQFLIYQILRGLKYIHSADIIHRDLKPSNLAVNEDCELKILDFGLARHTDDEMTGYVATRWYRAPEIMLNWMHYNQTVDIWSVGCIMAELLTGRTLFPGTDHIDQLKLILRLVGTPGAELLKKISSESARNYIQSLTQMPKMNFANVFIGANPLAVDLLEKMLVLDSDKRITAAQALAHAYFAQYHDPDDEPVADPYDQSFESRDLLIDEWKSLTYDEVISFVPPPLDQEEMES

SMILES	IC50 [1] [µM]	IC50 [2] [µM]	IC50 [3] [µM]	IC50 [4] [µM]
CCCNc1nccc(-c2c(-c3ccc(F)cc3)nc3n2[C@@H](COCc2ccc(OC)cc2)CC3)n1	0.217	0.233		
COc1ccc(COC[C@H]2CCc3nc(-c4ccc(F)cc4)c(-c4ccnc(N)n4)n32)cc1	0.116	0.27		
O=C(NCCCn1cnc(-c2ccc(F)cc2)c1-c1ccncc1)c1ccccc1			0.13	
[N-]=[N+]=Nc1cccc(-c2ncn(CCCNC(=O)c3ccc(I)cc3)c2-c2ccncc2)c1				0.046
COc1ccc(COC[C@@H]2CCc3nc(-c4ccc(F)cc4)c(-c4ccnc(N)n4)n32)cc1	0.295	0.0612		

The remaining compounds from weak to strong by IC50 [1], led by results:

IC50 [1] [µM]	IC50 [2] [µM]	IC50 [3] [µM]	IC50 [4] [µM]	SMILES
0.054	0.0109			CCCNc1nccc(-c2c(-c3ccc(F)cc3)nc3n2[C@H](COCc2ccc(OC)cc2)CC3)n1
0.031	0.003			CCCNc1nccc(-c2c(-c3ccc(F)cc3)nc3n2[C@@H](CO)CC3)n1
0.028	0.0025			CCCNc1nccc(-c2c(-c3ccc(F)cc3)nc3n2[C@H](CO)CC3)n1
